Measured values reported in ChEMBL document CHEMBL5331073, “Discovery of novel 7,7-dimethyl-6,7-dihydro-5H-pyrrolo[3,4-d]pyrimidines as ATR inhibitors based on structure-based drug design” (Eur J Med Chem, 2023).
pIC50: −log10 of the molar value.

Experiments:
[1] = Half life in Sprague-Dawley rat at 1 mg/kg, iv and measured upto 24 hrs by LC-MS analysis; type: ADME, organism-based; settings: in vivo
[2] = AUCt in Sprague-Dawley rat at 5 mg/kg, po and measured upto 24 hrs by LC-MS analysis; type: ADME, organism-based; parameters: time < 24 hrs, dose 5 mg/kg, route po; settings: in vivo
[3] = AUCt in Sprague-Dawley rat at 1 mg/kg, iv and measured upto 24 hrs by LC-MS analysis; type: ADME, organism-based; parameters: dose 1 mg/kg, time < 24 hrs, route iv; settings: in vivo
[4] = Half life in Sprague-Dawley rat at 5 mg/kg, po and measured upto 24 hrs by LC-MS analysis; type: ADME, organism-based; settings: in vivo
in vitro [5] = settings: rat, liver microsomes
[6] = Oral bioavailability in Sprague-Dawley rat at 5 mg/kg and measured upto 24 hrs by LC-MS analysis; type: ADME, organism-based; settings: in vivo
in vitro [7] = settings: human, liver microsomes
[8] = MRT(t) in Sprague-Dawley rat at 1 mg/kg, iv and measured upto 24 hrs by LC-MS analysis; type: ADME, organism-based; settings: in vivo
in vitro [9] = settings: human, liver microsomes; remark: listed apart in the source
[10] = AUC (0 to infinity) in Sprague-Dawley rat at 5 mg/kg, po and measured upto 24 hrs by LC-MS analysis; type: ADME, organism-based; parameters: time < 24 hrs, dose 5 mg/kg, route po; settings: in vivo
[11] = MRT (0 to infinity) in Sprague-Dawley rat at 1 mg/kg, iv and measured upto 24 hrs by LC-MS analysis; type: ADME, organism-based; settings: in vivo
HT-29 [12] = assay: Antiproliferative activity against ATM-proficient human HT-29 cells assessed as reduction in cell proliferation incubated for 3 days by MTT assay; type: functional, cell-based; settings: HT-29, 72 h
[13] = Cmax in Sprague-Dawley rat at 5 mg/kg, po and measured upto 24 hrs by LC-MS analysis; type: ADME, organism-based; parameters: time < 24 hrs, dose 5 mg/kg, route po; settings: in vivo
in vitro [14] = settings: rat, liver microsomes; remark: listed apart in the source
[15] = AUC(0 to infinity) in Sprague-Dawley rat at 1 mg/kg, iv and measured upto 24 hrs by LC-MS analysis; type: ADME, organism-based; parameters: time < 24 hrs, dose 1 mg/kg, route iv; settings: in vivo
[16] = Volume of distribution at steady state in Sprague-Dawley rat at 1 mg/kg, iv and measured upto 24 hrs by LC-MS analysis; type: ADME, organism-based; settings: in vivo, read-out: Vdss
LoVo [17] = assay: Antiproliferative activity against ATM-deficient human LoVo cells assessed as reduction in cell proliferation at 0.1 to 25 uM incubated for 3 days by MTT assay; type: functional, cell-based; settings: dose 0.1-25 µM, time 3.0 day
[18] = Clearance in Sprague-Dawley rat at 1 mg/kg, iv and measured upto 24 hrs by LC-MS analysis; type: ADME, organism-based; settings: in vivo
HT-29 [19] = assay: Antiproliferative activity against ATM-proficient human HT-29 cells assessed as reduction in cell proliferation at 0.5 to 22 uM incubated for 3 days by MTT assay; type: functional, cell-based; settings: dose 0.5-22 µM, time 3.0 day
LoVo [20] = assay: Antiproliferative activity against ATM-deficient human LoVo cells assessed as reduction in cell proliferation incubated for 3 days by MTT assay; type: functional, cell-based; settings: 72 h
in vitro [21] = settings: human, liver microsomes; remark: listed apart in the source
[22] = MRT(t) in Sprague-Dawley rat at 5 mg/kg, po and measured upto 24 hrs by LC-MS analysis; type: ADME, organism-based; settings: in vivo
in vitro [23] = settings: rat, liver microsomes; remark: listed apart in the source
[24] = Tmax in Sprague-Dawley rat at 5 mg/kg, po and measured upto 24 hrs by LC-MS analysis; type: ADME, organism-based; settings: in vivo
[25] = MRT (0 to infinity) in Sprague-Dawley rat at 5 mg/kg, po and measured upto 24 hrs by LC-MS analysis; type: ADME, organism-based; settings: in vivo
[26] = molecular target: T1, Serine/threonine-protein kinase ATR (Homo sapiens, UniProt Q13535); assay: Inhibition of ATR (unknown origin) using peptide as substrate preincubated for 10 mins followed by substrate addition by microplate reader analysis
Target sequence in this assay (Q13535 whole entry): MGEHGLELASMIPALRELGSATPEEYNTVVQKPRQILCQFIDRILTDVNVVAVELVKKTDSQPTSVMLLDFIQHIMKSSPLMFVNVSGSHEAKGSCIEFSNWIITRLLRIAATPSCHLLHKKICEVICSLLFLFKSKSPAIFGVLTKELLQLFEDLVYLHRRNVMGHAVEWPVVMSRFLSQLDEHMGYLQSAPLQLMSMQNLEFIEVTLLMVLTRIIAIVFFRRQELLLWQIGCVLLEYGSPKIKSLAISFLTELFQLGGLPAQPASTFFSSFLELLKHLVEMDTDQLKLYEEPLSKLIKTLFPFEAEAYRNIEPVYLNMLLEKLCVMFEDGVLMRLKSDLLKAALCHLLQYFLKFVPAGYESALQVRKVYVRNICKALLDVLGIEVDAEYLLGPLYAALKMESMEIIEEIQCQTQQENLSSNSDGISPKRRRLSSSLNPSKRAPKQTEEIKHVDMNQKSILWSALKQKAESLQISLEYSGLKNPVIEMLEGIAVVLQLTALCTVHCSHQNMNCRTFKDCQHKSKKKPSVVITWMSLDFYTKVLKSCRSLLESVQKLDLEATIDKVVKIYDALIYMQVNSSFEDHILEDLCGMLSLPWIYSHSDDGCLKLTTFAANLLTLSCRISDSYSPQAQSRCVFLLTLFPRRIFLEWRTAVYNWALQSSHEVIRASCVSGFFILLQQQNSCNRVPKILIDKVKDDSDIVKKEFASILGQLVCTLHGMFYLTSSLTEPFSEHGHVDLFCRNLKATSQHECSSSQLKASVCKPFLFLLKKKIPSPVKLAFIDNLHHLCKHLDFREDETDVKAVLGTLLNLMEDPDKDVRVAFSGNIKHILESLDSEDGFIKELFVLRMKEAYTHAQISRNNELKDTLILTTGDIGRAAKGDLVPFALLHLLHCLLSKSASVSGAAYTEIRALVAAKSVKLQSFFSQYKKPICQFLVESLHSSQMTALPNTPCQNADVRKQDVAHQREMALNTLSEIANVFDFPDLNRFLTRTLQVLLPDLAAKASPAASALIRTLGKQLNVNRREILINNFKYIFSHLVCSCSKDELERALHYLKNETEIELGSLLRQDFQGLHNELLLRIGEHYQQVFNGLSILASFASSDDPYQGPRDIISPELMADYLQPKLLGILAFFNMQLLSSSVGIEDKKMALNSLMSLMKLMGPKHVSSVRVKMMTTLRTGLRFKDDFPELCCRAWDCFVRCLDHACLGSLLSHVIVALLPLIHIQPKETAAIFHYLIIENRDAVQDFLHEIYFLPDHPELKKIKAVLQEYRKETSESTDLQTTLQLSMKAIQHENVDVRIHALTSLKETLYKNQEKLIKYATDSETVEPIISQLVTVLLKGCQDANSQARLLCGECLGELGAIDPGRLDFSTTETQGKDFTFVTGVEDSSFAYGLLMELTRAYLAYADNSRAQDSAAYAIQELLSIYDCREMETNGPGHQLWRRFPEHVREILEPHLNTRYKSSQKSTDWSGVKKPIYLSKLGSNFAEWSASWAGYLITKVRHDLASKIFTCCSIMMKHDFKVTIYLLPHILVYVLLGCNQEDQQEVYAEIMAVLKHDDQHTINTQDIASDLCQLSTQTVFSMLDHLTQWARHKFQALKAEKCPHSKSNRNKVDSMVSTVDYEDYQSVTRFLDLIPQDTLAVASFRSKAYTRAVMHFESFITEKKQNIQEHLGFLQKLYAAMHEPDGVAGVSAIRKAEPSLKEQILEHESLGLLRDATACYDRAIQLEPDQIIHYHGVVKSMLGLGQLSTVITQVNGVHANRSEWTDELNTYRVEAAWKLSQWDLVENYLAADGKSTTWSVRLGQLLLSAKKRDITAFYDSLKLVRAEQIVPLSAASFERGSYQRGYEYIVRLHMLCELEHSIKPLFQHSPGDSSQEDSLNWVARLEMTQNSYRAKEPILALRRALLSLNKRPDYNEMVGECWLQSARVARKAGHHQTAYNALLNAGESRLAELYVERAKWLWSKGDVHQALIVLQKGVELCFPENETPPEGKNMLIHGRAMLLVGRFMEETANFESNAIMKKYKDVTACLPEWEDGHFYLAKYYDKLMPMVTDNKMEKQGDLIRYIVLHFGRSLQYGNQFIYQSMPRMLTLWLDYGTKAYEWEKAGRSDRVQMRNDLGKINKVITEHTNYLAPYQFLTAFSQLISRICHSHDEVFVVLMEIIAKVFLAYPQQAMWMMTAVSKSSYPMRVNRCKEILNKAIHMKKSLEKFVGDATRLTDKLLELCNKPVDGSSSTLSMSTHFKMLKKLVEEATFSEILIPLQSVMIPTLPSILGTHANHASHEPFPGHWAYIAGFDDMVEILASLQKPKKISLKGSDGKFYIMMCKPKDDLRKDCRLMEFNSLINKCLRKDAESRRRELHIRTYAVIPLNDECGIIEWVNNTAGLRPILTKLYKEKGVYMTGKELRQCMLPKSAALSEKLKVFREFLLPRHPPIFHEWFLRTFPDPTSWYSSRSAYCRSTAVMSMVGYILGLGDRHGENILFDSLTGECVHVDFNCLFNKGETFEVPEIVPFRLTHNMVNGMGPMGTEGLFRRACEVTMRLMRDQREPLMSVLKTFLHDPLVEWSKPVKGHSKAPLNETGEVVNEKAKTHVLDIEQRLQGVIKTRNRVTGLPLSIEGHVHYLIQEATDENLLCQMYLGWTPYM

[27] = molecular target: T1, Serine/threonine-protein kinase ATR; assay: Inhibition of ATR (unknown origin) using peptide as substrate at 0.1 uM preincubated for 10 mins followed by substrate addition by microplate reader analysis
Target sequence in this assay (Q13535 whole entry, looked up): as the sequence (Q13535 whole entry) above

[28] = molecular target: Serine/threonine-protein kinase mTOR (Homo sapiens, UniProt P42345); assay: Inhibition of mTOR (unknown origin) using peptide as substrate preincubated for 10 mins followed by substrate addition by microplate reader analysis

Structure (SMILES) | half-life [1] [h] | AUC(0-t) at 24 h [2] [ng·h/mL] | AUC(0-t) at 24 h [3] [ng·h/mL] | half-life [4] [h] | CLint scaled at 1 h, 1 µM (in vitro [5]) [mL/min/kg] | bioavailability [6] [%] | half-life at 1 h, 1 µM (in vitro [7]) [h] | MRT last at 24 h [8] [h] | microsomal CLint at 1 h, 1 µM (in vitro [9]) [µL/min/mg] | AUC(0-inf) [10] [ng·h/mL] | MRT inf [11] [h] | pIC50 (HT-29 [12]) | Cmax [13] [ng/mL] | microsomal CLint at 1 h, 1 µM (in vitro [14]) [µL/min/mg] | AUC(0-inf) [15] [ng·h/mL] | Vd [16] [L/kg] | pIC50 (LoVo [20]) | CLint scaled at 1 h, 1 µM (in vitro [21]) [mL/min/kg] | half-life at 1 h, 1 µM (in vitro [23]) [h] | pIC50 [26] | further results
C[C@@H]1COCCN1c1nc(-c2cccc3[nH]ccc23)nc2c1CCN(Cc1ccccc1)C2(C)C |  |  |  |  |  |  |  |  |  |  |  |  |  |  |  |  |  |  |  |  | inhibition [27]: 14.6%
C[C@@H]1COCCN1c1nc(-c2cccc3[nH]ccc23)nc2c1CCNC2(C)C |  |  |  |  |  |  |  |  |  |  |  |  |  |  |  |  |  |  |  |  | inhibition [27]: 70.7%
C[C@@H]1COCCN1c1nc(-c2cccc3[nH]ccc23)nc2c1CCN(S(C)(=O)=O)C2(C)C |  |  |  |  |  |  |  |  |  |  |  |  |  |  |  |  |  |  |  | 7.74 | pIC50 [28]: 6.80; inhibition [27]: 88.7%

More lines, main results first:

half-life [1] [h] | AUC(0-t) at 24 h [2] [ng·h/mL] | AUC(0-t) at 24 h [3] [ng·h/mL] | half-life [4] [h] | CLint scaled at 1 h, 1 µM (in vitro [5]) [mL/min/kg] | bioavailability [6] [%] | half-life at 1 h, 1 µM (in vitro [7]) [h] | MRT last at 24 h [8] [h] | microsomal CLint at 1 h, 1 µM (in vitro [9]) [µL/min/mg] | AUC(0-inf) [10] [ng·h/mL] | MRT inf [11] [h] | pIC50 (HT-29 [12]) | Cmax [13] [ng/mL] | microsomal CLint at 1 h, 1 µM (in vitro [14]) [µL/min/mg] | AUC(0-inf) [15] [ng·h/mL] | Vd [16] [L/kg] | pIC50 (LoVo [20]) | CLint scaled at 1 h, 1 µM (in vitro [21]) [mL/min/kg] | half-life at 1 h, 1 µM (in vitro [23]) [h] | pIC50 [26] | Structure (SMILES) | further results
5.49 | 185 | 603 | 4.38 | 12.7 | 6.1 | 0.428 | 5.21 | 53.9 | 203 | 6.99 | 6.35 | 24.1 | 7.06 | 646 | 10.8 | 7.04 | 50.9 | 3.28 | 8.40 | C[C@@H]1COCCN1c1nc(-c2cccc3[nH]ccc23)nc2c1CN(C(=O)c1ccc(S(C)(=O)=O)cc1)C2(C)C | Activity (LoVo [17]): Dose-Dependent Effect; clearance [18]: 26 mL/min/kg; Activity (HT-29 [19]): Dose-Dependent Effect; MRT last at 24 h [22]: 5.56 h; Tmax [24]: 2 h; MRT inf [25]: 7.1 h
3.02 | 452 | 1440 | 10 | 138 | 6.3 | 0.158 | 2.99 | 147 | 729 | 3.3 | 6.41 | 83.1 | 76.6 | 1470 | 2.23 | 6.89 | 139 | 0.302 | 8.52 | COc1ccc(C(=O)N2Cc3c(N4CCOC[C@H]4C)nc(-c4cccc5[nH]ccc45)nc3C2(C)C)cc1 | clearance [18]: 11.3 mL/min/kg; MRT last at 24 h [22]: 7.08 h; Tmax [24]: 1 h; MRT inf [25]: 11.3 h
 |  |  |  | 218 |  | 0.0685 |  | 339 |  |  | 6.37 |  | 121 |  |  | 6.95 | 320 | 0.192 | 8.40 | CC(=O)c1cccc(C(=O)N2Cc3c(N4CCOC[C@H]4C)nc(-c4cccc5[nH]ccc45)nc3C2(C)C)c1 | Activity (LoVo [17]): Dose-Dependent Effect; Activity (HT-29 [19]): Dose-Dependent Effect
1.28 | 323 | 835 | 1.87 | 36.2 | 8.1 | 0.447 | 1.02 | 51.6 | 342 | 1.08 | 6.45 | 86.2 | 20.1 | 840 | 1.3 | 6.82 | 48.8 | 1.17 | 8.40 | COc1cccc(C(=O)N2Cc3c(N4CCOC[C@H]4C)nc(-c4cccc5[nH]ccc45)nc3C2(C)C)c1 | clearance [18]: 20.1 mL/min/kg; MRT last at 24 h [22]: 2.7 h; Tmax [24]: 0.667 h; MRT inf [25]: 3.08 h
 |  |  |  | 51.4 |  | 0.0823 |  | 281 |  |  | 6.51 |  | 28.5 |  |  | 7.02 | 265 | 0.812 | 8.22 | CC(=O)c1ccc(C(=O)N2Cc3c(N4CCOC[C@H]4C)nc(-c4cccc5[nH]ccc45)nc3C2(C)C)cc1 | Activity (LoVo [17]): Dose-Dependent Effect; Activity (HT-29 [19]): Dose-Dependent Effect
